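Following 48 hours of exposure in 96-well plates, responses at five concentrations were used to interpolate endpoints linearly. TGI is the concentration that stops growth completely.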
Key:
Assay in all cases: inhibition of tumour cell growth, NCI panel, 48 h
[1] = tested on: SW-620 colon
[2] = tested on: MOLT-4 leukemia
[3] = tested on: DU-145 prostate
[4] = tested on: HCT-15 colon
[5] = tested on: BT-549 breast
[6] = tested on: U251 CNS
[7] = tested on: SF-295 CNS
[8] = tested on: NCI/ADR-RES ovarian
[9] = tested on: MCF7 breast
[10] = tested on: KM12 colon
[11] = tested on: SNB-75 CNS
[12] = tested on: COLO 205 colon
[13] = tested on: SR leukemia
[14] = tested on: UACC-257 melanoma
[15] = tested on: SK-MEL-5 melanoma
[16] = tested on: HOP-62 NSCLC
[17] = tested on: MDA-MB-231 breast
[18] = tested on: CAKI-1 renal
[19] = tested on: MDA-N
[20] = tested on: OVCAR-3 ovarian
[21] = tested on: HOP-92 NSCLC
[22] = tested on: RPMI-8226 leukemia
[23] = tested on: SK-OV-3 ovarian
[24] = tested on: ACHN renal
[25] = tested on: NCI-H522 lung
[26] = tested on: M14 melanoma
[27] = tested on: OVCAR-4 ovarian
[28] = tested on: HL-60(TB) leukemia
[29] = tested on: SF-268 CNS
[30] = tested on: 786-0 renal
[31] = tested on: SN12C renal
[32] = tested on: OVCAR-5 ovarian
[33] = tested on: LOX IMVI melanoma
[34] = tested on: HT29 colon
[35] = tested on: NCI-H23 lung
[36] = tested on: MDA-MB-435
[37] = tested on: SF-539 CNS
[38] = tested on: HS 578T breast
[39] = tested on: MALME-3M melanoma
[40] = tested on: K-562 leukemia
[41] = tested on: PC-3 prostate
[42] = tested on: SNB-19 CNS
[43] = tested on: SK-MEL-28 melanoma
[44] = tested on: A549 NSCLC
[45] = tested on: TK-10 renal
[46] = tested on: HCT-116 colon
[47] = tested on: OVCAR-8 ovarian
[48] = tested on: HCC-2998 colon
[49] = tested on: EKVX NSCLC
[50] = tested on: RXF 393 renal
[51] = tested on: SK-MEL-2 melanoma
[52] = tested on: NCI-H460 lung
[53] = tested on: UO-31 renal
[54] = tested on: NCI-H226 lung
[55] = tested on: IGROV1 ovarian
[56] = tested on: CCRF-CEM leukemia
[57] = tested on: UACC-62 melanoma
[58] = tested on: A498 renal

## OCCN1c2ccccc2Sc2ccccc21
[1]
  TGI: > 10 µM
[2]
  TGI: > 10 µM
[3]
  TGI: > 10 µM
[4]
  TGI: > 10 µM
[5]
  TGI: > 10 µM
[6]
  TGI: > 10 µM
[7]
  TGI: > 10 µM
[8]
  TGI: > 10 µM
[9]
  TGI: > 10 µM
[10]
  TGI: > 10 µM
[11]
  TGI: > 10 µM
[12]
  TGI: > 10 µM
[13]
  TGI: > 10 µM
[14]
  TGI: > 10 µM
[15]
  TGI: > 10 µM
[16]
  TGI: > 10 µM
[17]
  TGI: > 10 µM
[18]
  TGI: > 10 µM
[19]
  TGI: > 10 µM
[20]
  TGI: > 10 µM
[21]
  TGI: > 10 µM
[22]
  TGI: > 10 µM
[23]
  TGI: > 10 µM
[24]
  TGI: > 10 µM
[25]
  TGI: > 10 µM
[26]
  TGI: > 10 µM
[27]
  TGI: > 10 µM
[28]
  TGI: > 10 µM
[29]
  TGI: > 10 µM
[30]
  TGI: > 10 µM
[31]
  TGI: > 10 µM
[32]
  TGI: > 10 µM
[33]
  TGI: > 10 µM
[34]
  TGI: > 10 µM
[35]
  TGI: > 10 µM
[36]
  TGI: > 10 µM
[37]
  TGI: > 10 µM
[38]
  TGI: > 10 µM
[39]
  TGI: > 10 µM
[40]
  TGI: > 10 µM
[41]
  TGI: > 10 µM
[42]
  TGI: > 10 µM
[43]
  TGI: > 10 µM
[44]
  TGI: > 10 µM
[45]
  TGI: > 10 µM
[46]
  TGI: > 10 µM
[47]
  TGI: > 10 µM
[48]
  TGI: > 10 µM

## O=C(O)CNC(=O)C(CSC(=O)OCC1c2ccccc2-c2ccccc21)NC(=O)CCC(NC(=O)OCC1c2ccccc2-c2ccccc21)C(=O)O (stereo not drawn)
[1]
  TGI: 35.1 µM
[2]
  TGI: 45.4 µM
[49]
  TGI: 32.2 µM
[3]
  TGI: 28.6 µM
[4]
  TGI: 64.8 µM
[5]
  TGI: > 100 µM
[7]
  TGI: 30.5 µM
[8]
  TGI: 33.7 µM
[9]
  TGI: > 100 µM
[50]
  TGI: 34.7 µM
[12]
  TGI: 31.1 µM
[13]
  TGI: 15.4 µM
[14]
  TGI: > 100 µM
[15]
  TGI: > 100 µM
[16]
  TGI: 28.9 µM
[51]
  TGI: > 100 µM
[17]
  TGI: 31.9 µM
[18]
  TGI: 15.7 µM
[19]
  TGI: 82.3 µM
[20]
  TGI: > 100 µM
[21]
  TGI: 36.3 µM
[22]
  TGI: 46.4 µM
[23]
  TGI: > 100 µM
[24]
  TGI: 32.8 µM
[25]
  TGI: 3.52 µM
[26]
  TGI: > 100 µM
[27]
  TGI: 29.5 µM
[28]
  TGI: > 100 µM
[29]
  TGI: 33.1 µM
[30]
  TGI: 9.13 µM
[31]
  TGI: 30.7 µM
[52]
  TGI: 34.2 µM
[32]
  TGI: > 100 µM
[33]
  TGI: 0.577 µM
[35]
  TGI: > 100 µM
[36]
  TGI: 34.1 µM
[53]
  TGI: 33 µM
[54]
  TGI: > 100 µM
[37]
  TGI: 30.6 µM
[38]
  TGI: > 100 µM
[39]
  TGI: 59.4 µM
[55]
  TGI: 26.8 µM
[40]
  TGI: 39.2 µM
[41]
  TGI: 28.9 µM
[56]
  TGI: 41.2 µM
[42]
  TGI: > 100 µM
[43]
  TGI: > 100 µM
[44]
  TGI: 28 µM
[45]
  TGI: 56 µM
[46]
  TGI: 32.6 µM
[47]
  TGI: 32.4 µM
[48]
  TGI: > 100 µM

## O=C(N=Nc1c(O)[nH]c2c(Cl)cc(Cl)cc12)c1ccccc1O
[1]
  TGI: 34.5 µM
[2]
  TGI: 31 µM
[49]
  TGI: 26.3 µM
[4]
  TGI: 29.2 µM
[5]
  TGI: 27.7 µM
[6]
  TGI: 21 µM
[7]
  TGI: 28.4 µM
[8]
  TGI: 26.3 µM
[9]
  TGI: 41 µM
[10]
  TGI: 29.5 µM
[50]
  TGI: 25.3 µM
[11]
  TGI: 22.8 µM
[12]
  TGI: 38.5 µM
[13]
  TGI: 23.7 µM
[14]
  TGI: 33.2 µM
[15]
  TGI: 28.7 µM
[16]
  TGI: 29.2 µM
[51]
  TGI: 26.1 µM
[17]
  TGI: 30.1 µM
[18]
  TGI: 31.1 µM
[19]
  TGI: 28.1 µM
[20]
  TGI: 25.1 µM
[21]
  TGI: 28.6 µM
[23]
  TGI: 30.6 µM
[24]
  TGI: 25.8 µM
[26]
  TGI: 30.3 µM
[27]
  TGI: 26.9 µM
[28]
  TGI: 43.4 µM
[30]
  TGI: 26.3 µM
[31]
  TGI: 30.5 µM
[52]
  TGI: 27.6 µM
[32]
  TGI: 32.4 µM
[33]
  TGI: 28 µM
[34]
  TGI: 34.8 µM
[57]
  TGI: 24.8 µM
[35]
  TGI: 33.1 µM
[36]
  TGI: 26.9 µM
[53]
  TGI: 24.3 µM
[54]
  TGI: 29.4 µM
[37]
  TGI: 29.6 µM
[38]
  TGI: 29 µM
[39]
  TGI: 27.1 µM
[55]
  TGI: 26.9 µM
[41]
  TGI: 29 µM
[56]
  TGI: 46.9 µM
[58]
  TGI: 30.8 µM
[42]
  TGI: 27.8 µM
[43]
  TGI: 30 µM
[44]
  TGI: 27.4 µM
[45]
  TGI: 29.3 µM
[46]
  TGI: 27.3 µM
[47]
  TGI: 25.2 µM
[48]
  TGI: 31.1 µM

## CC(C)C1=C(O)C2=C(C(=O)C1=O)C1(C)CCCC(C)(C)C1CC2O (stereo not drawn)
[1]
  TGI: 63.2 µM
[2]
  TGI: > 100 µM
[49]
  TGI: 49.7 µM
[3]
  TGI: > 100 µM
[4]
  TGI: 13.8 µM
[5]
  TGI: 25.9 µM
[6]
  TGI: > 100 µM
[7]
  TGI: 64.4 µM
[9]
  TGI: 22.8 µM
[10]
  TGI: 19 µM
[50]
  TGI: 5.89 µM
[11]
  TGI: > 100 µM
[12]
  TGI: > 100 µM
[13]
  TGI: 58.4 µM
[14]
  TGI: 31.9 µM
[15]
  TGI: 5.23 µM
[16]
  TGI: 21.1 µM
[51]
  TGI: 11 µM
[17]
  TGI: 9.46 µM
[18]
  TGI: 24.1 µM
[19]
  TGI: 4.76 µM
[20]
  TGI: 29 µM
[21]
  TGI: 13.3 µM
[23]
  TGI: 45.5 µM
[24]
  TGI: 13.2 µM
[25]
  TGI: 53.7 µM
[26]
  TGI: 15.3 µM
[27]
  TGI: 82.6 µM
[28]
  TGI: 30.4 µM
[29]
  TGI: > 100 µM
[30]
  TGI: > 100 µM
[31]
  TGI: 28 µM
[52]
  TGI: 12.8 µM
[32]
  TGI: 43.2 µM
[33]
  TGI: > 100 µM
[34]
  TGI: 62 µM
[57]
  TGI: 8.66 µM
[35]
  TGI: 3.93 µM
[36]
  TGI: 13.6 µM
[53]
  TGI: 17.9 µM
[37]
  TGI: 52.7 µM
[38]
  TGI: > 100 µM
[39]
  TGI: 16.6 µM
[55]
  TGI: 77.7 µM
[40]
  TGI: > 100 µM
[41]
  TGI: 31.7 µM
[56]
  TGI: 23.6 µM
[58]
  TGI: 38.6 µM
[42]
  TGI: 21.4 µM
[43]
  TGI: 38.5 µM
[44]
  TGI: 34.8 µM
[45]
  TGI: > 100 µM
[46]
  TGI: > 100 µM
[47]
  TGI: 90.7 µM
[48]
  TGI: 12 µM

## CC(C)C(=O)OCC1CCCN2CCCCC12 (stereo not drawn)
[1]
  TGI: > 100 µM
[2]
  TGI: > 100 µM
[49]
  TGI: > 100 µM
[3]
  TGI: > 100 µM
[4]
  TGI: > 100 µM
[5]
  TGI: > 100 µM
[6]
  TGI: > 100 µM
[7]
  TGI: > 100 µM
[8]
  TGI: > 100 µM
[9]
  TGI: > 100 µM
[10]
  TGI: > 100 µM
[50]
  TGI: > 100 µM
[11]
  TGI: > 100 µM
[12]
  TGI: > 100 µM
[14]
  TGI: > 100 µM
[15]
  TGI: > 100 µM
[16]
  TGI: > 100 µM
[51]
  TGI: > 100 µM
[17]
  TGI: > 100 µM
[18]
  TGI: > 100 µM
[19]
  TGI: > 100 µM
[20]
  TGI: > 100 µM
[21]
  TGI: > 100 µM
[22]
  TGI: > 100 µM
[23]
  TGI: > 100 µM
[24]
  TGI: > 100 µM
[26]
  TGI: > 100 µM
[27]
  TGI: > 100 µM
[28]
  TGI: > 100 µM
[29]
  TGI: > 100 µM
[30]
  TGI: > 100 µM
[31]
  TGI: > 100 µM
[52]
  TGI: > 100 µM
[32]
  TGI: > 100 µM
[33]
  TGI: > 100 µM
[34]
  TGI: 97.6 µM
[57]
  TGI: > 100 µM
[35]
  TGI: > 100 µM
[36]
  TGI: > 100 µM
[53]
  TGI: > 100 µM
[54]
  TGI: > 100 µM
[37]
  TGI: > 100 µM
[38]
  TGI: > 100 µM
[39]
  TGI: > 100 µM
[40]
  TGI: > 100 µM
[41]
  TGI: > 100 µM
[56]
  TGI: > 100 µM
[58]
  TGI: > 100 µM
[42]
  TGI: > 100 µM
[43]
  TGI: > 100 µM
[44]
  TGI: > 100 µM
[45]
  TGI: > 100 µM
[46]
  TGI: > 100 µM
[47]
  TGI: > 100 µM
[48]
  TGI: > 100 µM
